Like-named read-outs stand apart in the source and are kept apart here.
How the values were obtained:
[1] = system: MM.1R; experiment: CCK-8 tumor cell proliferation, MM.1R; type: cell-based; conditions: 72 h, read-out: IC50 for inhibiting the proliferation of tumor cells, MM.1R
Procedure: (§1) Determination of half inhibitory concentration (IC50) of the compounds against tumor cells:
(§2) The tumor cells used herein were cultured in a cell culture medium listed in table 6 at 37° C. in an incubator with 5% CO2.
(§3) After the cells were treated with the compounds of the present disclosure for a period of time (the treatment times listed in Table 7), the cell viability detection reagent was added to the culture medium for cell viability assessment according to the instructions provided with the CCK-8 kit. […] The growth inhibition of the compounds of the present disclosure on cells was plotted by Prism Graphpad software, and the IC50 values of the compounds of the present disclosure were calculated therefrom.

[2] = system: MGC80-3; experiment: CCK-8 tumor cell proliferation, MGC80-3; type: cell-based, Human; conditions: read-out: IC50 for inhibiting the proliferation of tumor cells, MGC80-3
Procedure: as §1
(§4) The tumor cells used herein were cultured in a cell culture medium listed in table 6 at 37° C. in an incubator with 5% CO2. Prior to experimentation, all cells used were correctly identified by STR profiling, and tested negative for mycoplasma through routine screenings.
(§5) IC50 values of the compounds of the present disclosure (including the compounds in Table 4 and compounds of examples 1-72) were measured using the Meilun Cell Counting Kit-S kit from Dalian Meilun Biotech Co., Ltd. Assay details are as follows: tumor cells were seeded in a 96-well plate at a density listed in Table 7. After 24 h, 100 μL of the inoculated cells were treated with 0.5 μL of the compounds of the present disclosure (including the compounds in Table 4 and compounds of examples 1-72) at 10 different successively decreasing concentrations (starting at the highest concentration of 10 μM; 5-fold serial dilutions). After the cells were treated with the compounds of the present disclosure for a period of time (the treatment times listed in Table 7), the cell viability detection reagent was added to the culture medium for cell viability assessment according to the instructions provided with the CCK-8 kit. […] The growth inhibition of the compounds of the present disclosure on cells was plotted by Prism Graphpad software, and the IC50 values of the compounds of the present disclosure were calculated therefrom.

[3] = system: DU-145; experiment: CCK-8 tumor cell proliferation, DU-145; type: cell-based, Human; conditions: DU-145, 96 h, read-out: IC50 for inhibiting the proliferation of tumor cells, DU-145
Procedure: as §1, §2, §3

[4] = system: LNcap; experiment: CCK-8 tumor cell proliferation, LNcap; type: cell-based, Human; conditions: 96 h, read-out: IC50 for inhibiting the proliferation of tumor cells, LNcap
Procedure: as §1, §4, §5

[5] = system: A549; experiment: CCK-8 tumor cell proliferation, A549; type: cell-based, Human; conditions: A549, 96 h, read-out: IC50 for inhibiting the proliferation of tumor cells, A549
Procedure: as §1, §4, §5

[6] = system: Hep3B2.1-7; experiment: CCK-8 tumor cell proliferation, Hep3B2.1-7; type: cell-based, Human; conditions: Hep3B2.1-7, 96 h, read-out: IC50 for inhibiting the proliferation of tumor cells, Hep3B2.1-7
Procedure: as §1, §4, §5

[7] = system: SW620; experiment: CCK-8 tumor cell proliferation, SW620; type: cell-based, Human; conditions: SW620, 96 h, read-out: IC50 for inhibiting the proliferation of tumor cells, SW620
Procedure: as §1, §2, §3

[8] = system: WSU-DLCL2; experiment: CCK-8 tumor cell proliferation, WSU-DLCL2; type: cell-based, Human; conditions: read-out: IC50 for inhibiting the proliferation of tumor cells, WSU-DLCL2
Procedure: as §1, §2, §3

[9] = system: PC-3; experiment: CCK-8 tumor cell proliferation, PC-3; type: cell-based, Human; conditions: PC-3, 96 h, read-out: IC50 for inhibiting the proliferation of tumor cells, PC-3
Procedure: as §1, §2, §3

[10] = system: Kasumi-1; experiment: CCK-8 tumor cell proliferation, Kasumi-1; type: cell-based; conditions: Homo sapiens, Kasumi-1, 72 h, read-out: IC50 for inhibiting the proliferation of tumor cells, Kasumi-1
Procedure: as §1, §2, §3

[11] = system: SU-DHL-6; experiment: CCK-8 tumor cell proliferation, SU-DHL-6; type: cell-based; conditions: Homo sapiens, SU-DHL-6, 72 h, read-out: IC50 for inhibiting the proliferation of tumor cells, SU-DHL-6
Procedure: as §1, §2, §3

[12] = Homo sapiens, WSUDLCL2, WSU-DLCL2, 96 h
[13] = Homo sapiens, MGC-803, MGC80-3, 96 h

Which IC50 [1] does the source give for N#Cc1ccc(OC2CCC(NC(=O)c3ccc(N4CCC(CN5CC6CCC(C5)N6c5ccc6c(c5)C(=O)N(C5CCC(=O)NC5=O)C6=O)CC4)nn3)CC2)cc1Cl (centres unmarked) [GT-03488, N-((1r,4r)-4-(3-chloro-4-cyanophenoxy)cyclohexyl)-6-(4-((8-(2-(2,6-dioxopiperidin-3-yl)-1,3-dioxoisoindolin-5-yl)-3,8-diazabicyclo[3.2.1]octan-3-yl)methyl)piperidin-1-yl)pyridazine-3-carboxamide] here?
The IC50 was no more than 50 nM.

What about the IC50 ([2]; MGC80-3, 96 h) of the same compound?
Its IC50 is no more than 50 nM.

What about the IC50 [3] of the same compound?
Its IC50 is 50 to 100 nM.

What about the IC50 [4] of the same compound?
The IC50 was no more than 50 nM.

And the IC50 [5]?
The IC50 was 50 to 100 nM.

What about the IC50 [6] of the same compound?
Its IC50 is no more than 50 nM.

Which IC50 ([7]; Homo sapiens, SW-620, CCK-8, Table 9, numeric value) does the source give for CN(C)C(=O)c1cc2cnc(Nc3ccc(N4CCNCC4)cn3)nc2n1C1CCCC1 [Ribociclib, reference compound] here?
Its IC50 is greater than 10000 nM.

How did the IC50 ([7]; Homo sapiens, SW-620, CCK-8, Table 9 (CDK4/6-based)) turn out when CN(C)C(=O)c1cc2cnc(Nc3ccc(N4CCC(CN5CC6CCC(C5)N6c5ccc6c(c5)C(=O)N(C5CCC(=O)NC5=O)C6=O)CC4)cn3)nc2n1C1CCCC1 (centres unmarked) [GT-03651, 7-cyclopentyl-2-((5-(4-((8-(2-(2,6-dioxopiperidin-3-yl)-1,3-dioxoisoindolin-5-yl)-3,8-diazabicyclo[3.2.1]octan-3-yl)methyl)piperidin-1-yl)pyridin-2-yl)amino)-N,N-dimethyl-7H-pyrrolo[2,3-d]pyrimidine-6-carboxamide] was run?
Its IC50 is 100 to 500 nM.

Which results are given for CC1(C)[C@H](NC(=O)c2ccc(N3CCC(CN4CC5CCC(C4)N5c4cc5c(cc4F)C(=O)N(C4CCC(=O)NC4=O)C5=O)CC3)nc2)C(C)(C)[C@H]1Oc1ccc(C#N)c(Cl)c1 (some centres unmarked) [GT-03402, N-((1r,3r)-3-(3-chloro-4-cyanophenoxy)-2,2,4,4-tetramethylcyclobutyl)-6-(4-((8-(2-(2,6-dioxopiperidin-3-yl)-6-fluoro-1,3-dioxoisoindolin-5-yl)-3,8-diazabicyclo[3.2.1]octan-3-yl)methyl)piperidin-1-yl)nicotinamide]?
IC50 [8, 12]: 100 to 500 nM; IC50 ([3]; Homo sapiens): 50 to 100 nM; IC50 ([4]; Homo sapiens): 50 to 100 nM; IC50 ([5]; Homo sapiens): 100 to 500 nM; IC50 ([9]; Homo sapiens): 50 to 100 nM

Cc1nc(Nc2ncc(C(=O)Nc3c(C)cccc3Cl)s2)cc(N2CCC(CN3CC4CC(C3)N4c3ccc4c(c3)C(=O)N(C3CCC(=O)NC3=O)C4=O)CC2)n1 (centres unmarked) [GT-03630, N-(2-chloro-6-methylphenyl)-2-((6-(4-((6-(2-(2,6-dioxopiperidin-3-yl)-1,3-dioxoisoindolin-5-yl)-3,6-diazabicyclo[3.1.1]heptan-3-yl)methyl)piperidin-1-yl)-2-methylpyrimidin-4-yl)amino)thiazole-5-carboxamide] was tested. Which IC50 [10] did it give?
The IC50 was no more than 50 nM.

And the IC50 [11]?
Its IC50 is 100 to 500 nM.

How did the IC50 ([7]; CCK-8, Table 8 (AR-based)) turn out when N#Cc1ccc(OC2CCC(NC(=O)c3ccc(N4CCC(CN5CC6CCC5CN6c5cc6c(cc5F)C(=O)N(C5CCC(=O)NC5=O)C6=O)CC4)nn3)CC2)cc1Cl (centres unmarked) [GT-03773, N-((1r,4r)-4-(3-chloro-4-cyanophenoxy)cyclohexyl)-6-(4-((5-(2-(2,6-dioxopiperidin-3-yl)-6-fluoro-1,3-dioxoisoindolin-5-yl)-2,5-diazabicyclo[2.2.2]octan-2-yl)methyl)piperidin-1-yl)pyridazine-3-carboxamide] was run?
The IC50 was 100 to 500 nM.

N#Cc1ccc(OC2CCC(NC(=O)c3ccc(N4CCC(CN5CCN(c6cc7c(cc6F)C(=O)N(C6CCC(=O)NC6=O)C7=O)CC5)CC4)nn3)CC2)cc1Cl (centres unmarked) [GT-03016, N-((1r,4r)-4-(3-chloro-4-cyanophenoxy)cyclohexyl)-6-(4-((4-(2-(2,6-dioxopiperidin-3-yl)-6-fluoro-1,3-dioxoisoindolin-5-yl)piperazin-1-yl-2,2,3,3,5,5,6,6-d8)methyl)piperidin-1-yl)pyridazine-3-carboxamide] was tested. Which IC50 [1] did it give?
The IC50 was 1000 to 5000 nM.

And the IC50 ([2]; MGC80-3, 96 h)?
The IC50 was 100 to 500 nM.

And the IC50 ([8]; WSU-DLCL2, 96 h)?
Its IC50 is 1000 to 5000 nM.

And the IC50 ([7]; CCK-8, Table 8 (AR-based))?
Its IC50 is 50 to 100 nM.

What about the IC50 [3] of the same compound?
The IC50 was 500 to 1000 nM.

And the IC50 [4]?
The IC50 was 500 to 1000 nM.

And the IC50 [9]?
Its IC50 is 500 to 1000 nM.

What does the source list for CC1(C)[C@H](NC(=O)c2ccc(N3CCC(CN4CC5CCC4CN5c4ccc5c(c4)C(=O)N(C4CCC(=O)NC4=O)C5=O)CC3)nc2)C(C)(C)[C@H]1Oc1ccc(C#N)c(Cl)c1 (some centres unmarked) [GT-03481, N-((1r,3r)-3-(3-chloro-4-cyanophenoxy)-2,2,4,4-tetramethylcyclobutyl)-6-(4-((5-(2-(2,6-dioxopiperidin-3-yl)-1,3-dioxoisoindolin-5-yl)-2,5-diazabicyclo[2.2.2]octan-2-yl)methyl)piperidin-1-yl)nicotinamide]?
IC50 [2, 13]: 100 to 500 nM; IC50 [8, 12]: 100 to 500 nM; IC50 ([4]; Homo sapiens): 100 to 500 nM; IC50 ([5]; Homo sapiens): 100 to 500 nM; IC50 ([6]; Homo sapiens): ≤ 50 nM

Which IC50 [1] does the source give for N#Cc1ccc(OC2CCC(NC(=O)c3ccc(N4CCC(CN5CC6CCC(C5)N6c5cc6c(cc5F)C(=O)N(C5CCC(=O)NC5=O)C6=O)CC4)nn3)CC2)cc1Cl (centres unmarked) [GT-02765, N-((1r,4r)-4-(3-chloro-4-cyanophenoxy)cyclohexyl)-6-(4-((8-(2-(2,6-dioxopiperidin-3-yl)-6-fluoro-1,3-dioxoisoindolin-5-yl)-3,8-diazabicyclo[3.2.1]octan-3-yl)methyl)piperidin-1-yl)pyridazine-3-carboxamide] here?
The IC50 was 100 to 500 nM.

And the IC50 ([2]; MGC80-3, 96 h)?
Its IC50 is no more than 50 nM.

And the IC50 ([8]; WSU-DLCL2, 96 h)?
Its IC50 is no more than 50 nM.

And the IC50 ([7]; CCK-8, Table 8 (AR-based))?
The IC50 was no more than 50 nM.

What about the IC50 [3] of the same compound?
The IC50 was 50 to 100 nM.

And the IC50 [4]?
Its IC50 is no more than 50 nM.

And the IC50 [5]?
Its IC50 is no more than 50 nM.

What about the IC50 [9] of the same compound?
The IC50 was no more than 50 nM.

And the IC50 [6]?
Its IC50 is no more than 50 nM.

Which results are given for CC1(C)[C@H](NC(=O)c2ccc(N3CCC(CN4CC5CCC4CN5c4cc5c(cc4F)C(=O)N(C4CCC(=O)NC4=O)C5=O)CC3)nc2)C(C)(C)[C@H]1Oc1ccc(C#N)c(Cl)c1 (some centres unmarked) [GT-03494, N-((1r,3r)-3-(3-chloro-4-cyanophenoxy)-2,2,4,4-tetramethylcyclobutyl)-6-(4-((5-(2-(2,6-dioxopiperidin-3-yl)-6-fluoro-1,3-dioxoisoindolin-5-yl)-2,5-diazabicyclo[2.2.2]octan-2-yl)methyl)piperidin-1-yl)nicotinamide]?
IC50 [2, 13]: 50 to 100 nM; IC50 [8, 12]: 50 to 100 nM; IC50 ([3]; Homo sapiens): 1000 to 5000 nM; IC50 ([4]; Homo sapiens): 50 to 100 nM; IC50 ([5]; Homo sapiens): 100 to 500 nM; IC50 ([6]; Homo sapiens): 50 to 100 nM

What does the source list for Cc1nc(Nc2ncc(C(=O)Nc3c(C)cccc3Cl)s2)cc(N2CCC(CN3CC4CCC(C3)N4c3ccc4c(c3)C(=O)N(C3CCC(=O)NC3=O)C4=O)CC2)n1 (centres unmarked) [GT-03629, N-(2-chloro-6-methylphenyl)-2-((6-(4-((8-(2-(2,6-dioxopiperidin-3-yl)-1,3-dioxoisoindolin-5-yl)-3,8-diazabicyclo[3.2.1]octan-3-yl)methyl)piperidin-1-yl)-2-methylpyrimidin-4-yl)amino)thiazole-5-carboxamide]?
IC50 [10]: 100 to 500 nM; IC50 [11]: 100 to 500 nM

Which IC50 [2, 13] does the source give for CC1(C)[C@H](NC(=O)c2ccc(N3CCC(CN4CC5CCC(C4)N5c4cc5c(cc4F)C(=O)N(C4CCC(=O)NC4=O)C5=O)CC3)nn2)C(C)(C)[C@H]1Oc1ccc(C#N)c(Cl)c1 (some centres unmarked) [GT-03398, N-((1r,3r)-3-(3-chloro-4-cyanophenoxy)-2,2,4,4-tetramethylcyclobutyl)-6-(4-((8-(2-(2,6-dioxopiperidin-3-yl)-6-fluoro-1,3-dioxoisoindolin-5-yl)-3,8-diazabicyclo[3.2.1]octan-3-yl)methyl)piperidin-1-yl)pyridazine-3-carboxamide] here?
The IC50 was no more than 50 nM.

What about the IC50 ([3]; Homo sapiens) of the same compound?
The IC50 was 50 to 100 nM.

And the IC50 ([4]; Homo sapiens)?
Its IC50 is 50 to 100 nM.

And the IC50 ([5]; Homo sapiens)?
The IC50 was 50 to 100 nM.

What about the IC50 ([9]; Homo sapiens) of the same compound?
Its IC50 is no more than 50 nM.

From patent US20250243210A1, “CRBN E3 LIGASE LIGAND COMPOUND, PROTEIN DEGRADER DEVELOPED BASED THEREON AND THEIR APPLICATIONS” (GLUETACS THERAPEUTICS (SHANGHAI) CO., LTD., priority 2021, published 2025)
